Where two headings read alike, the source gives them in different places.
Legend:
Test in all cases: Kinase panel profiling at 1 µmol/L (MSA or IMAP), percentage inhibition
Type in all cases: biochemical
[1] = biological target: panel of 255 wild-type kinases (Homo sapiens, UniProt Q9P286); details: read-out: %-inhibition, PAK5
[2] = biological target: panel of 255 wild-type kinases (Homo sapiens, UniProt Q9H2X6); details: read-out: %-inhibition at 1 µmol/L, HIPK2
[3] = biological target: T1, panel of 255 wild-type kinases (Homo sapiens, UniProt Q13470); details: read-out: %-inhibition at 1 µmol/L, TNK1
T1 sequence (Q13470 1-666): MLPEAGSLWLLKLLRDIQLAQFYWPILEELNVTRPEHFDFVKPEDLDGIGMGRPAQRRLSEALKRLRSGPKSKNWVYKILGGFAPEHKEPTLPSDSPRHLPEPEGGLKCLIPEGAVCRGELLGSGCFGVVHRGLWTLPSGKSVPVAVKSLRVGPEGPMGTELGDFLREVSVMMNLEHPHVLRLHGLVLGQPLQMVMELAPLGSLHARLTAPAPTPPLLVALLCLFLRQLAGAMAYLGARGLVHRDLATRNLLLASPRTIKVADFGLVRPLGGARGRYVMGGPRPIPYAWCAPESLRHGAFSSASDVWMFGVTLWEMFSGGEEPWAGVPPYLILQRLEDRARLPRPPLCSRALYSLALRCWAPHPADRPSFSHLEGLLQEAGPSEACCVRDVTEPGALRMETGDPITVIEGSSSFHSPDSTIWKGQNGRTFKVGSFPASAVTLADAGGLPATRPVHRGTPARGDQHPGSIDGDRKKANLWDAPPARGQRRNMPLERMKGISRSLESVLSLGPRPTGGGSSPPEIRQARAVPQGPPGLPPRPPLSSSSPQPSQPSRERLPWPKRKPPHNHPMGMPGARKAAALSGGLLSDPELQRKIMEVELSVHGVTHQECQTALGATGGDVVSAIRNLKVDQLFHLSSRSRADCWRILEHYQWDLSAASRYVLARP

[4] = biological target: panel of 255 wild-type kinases (Homo sapiens, UniProt Q9H4B4); details: read-out: %-inhibition at 1 µmol/L, PLK3
[5] = biological target: panel of 255 wild-type kinases (Homo sapiens, UniProt P50613); details: read-out: %-inhibition CDK7/CycH/MAT1
[6] = biological target: T2, panel of 255 wild-type kinases (Homo sapiens, UniProt O00141); details: read-out: %-inhibition at 1 µmol/L, SGK
T2 sequence (O00141 1-431): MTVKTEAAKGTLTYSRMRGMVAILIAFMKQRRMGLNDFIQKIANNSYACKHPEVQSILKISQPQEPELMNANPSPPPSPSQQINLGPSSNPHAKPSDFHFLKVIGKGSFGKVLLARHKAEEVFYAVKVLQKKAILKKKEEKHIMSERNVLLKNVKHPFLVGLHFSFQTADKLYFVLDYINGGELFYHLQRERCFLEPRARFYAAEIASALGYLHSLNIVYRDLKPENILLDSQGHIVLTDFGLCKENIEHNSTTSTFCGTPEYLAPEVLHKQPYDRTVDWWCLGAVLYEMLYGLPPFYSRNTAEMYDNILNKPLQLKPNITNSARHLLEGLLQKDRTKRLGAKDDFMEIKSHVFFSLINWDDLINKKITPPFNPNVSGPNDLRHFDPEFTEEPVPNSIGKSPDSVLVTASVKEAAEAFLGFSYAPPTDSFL

[7] = biological target: panel of 255 wild-type kinases (Homo sapiens, UniProt Q9H0K1); details: read-out: %-inhibition at 1 µmol/L, QIK
[8] = biological target: panel of 255 wild-type kinases (Homo sapiens, UniProt Q16620); details: read-out: %-inhibition at 1 µmol/L, TRKB
[9] = biological target: panel of 255 wild-type kinases (Homo sapiens, UniProt Q9H422); details: read-out: %-inhibition at 1 µmol/L, HIPK3
[10] = biological target: panel of 255 wild-type kinases (Homo sapiens, UniProt Q13554); details: read-out: %-inhibition CaMK2β
[11] = biological target: panel of 255 wild-type kinases (Homo sapiens, UniProt P27448); details: read-out: %-inhibition, MARK3
[12] = biological target: panel of 255 wild-type kinases (Homo sapiens, UniProt Q00534); details: read-out: %-inhibition CDK6/CycD3
[13] = biological target: panel of 255 wild-type kinases (Homo sapiens, UniProt Q9UPE1); details: read-out: %-inhibition, MSSK1
[14] = PAK5, 1 µmol/L single concentration
[15] = kinase HIPK2, 1 µmol/L single concentration
[16] = kinase TNK1, 1 µmol/L single concentration
[17] = kinase PLK3, 1 µmol/L single concentration
[18] = CDK7/CycH/MAT1 kinase assay, 1 µmol/L single concentration
[19] = kinase SGK, 1 µmol/L single concentration
[20] = kinase QIK, 1 µmol/L single concentration
[21] = kinase TRKB, 1 µmol/L single concentration
[22] = kinase HIPK3, 1 µmol/L single concentration
[23] = CaMK2β kinase assay, 1 µmol/L single concentration
[24] = MARK3, 1 µmol/L single concentration
[25] = CDK6/CycD3 kinase assay, 1 µmol/L single concentration
[26] = MSSK1, 1 µmol/L single concentration

COc1ccc(CN2C3CC2CN(c2ccc(-c4cc(OCC(C)(C)O)cn5ncc(C#N)c45)cn2)C3)cn1 [selpercatinib]
inhibition at 1 µM [1, 14]: 9%
inhibition at 1 µM [2, 15]: 0.223%
inhibition at 1 µM [3, 16]: 30%
inhibition at 1 µM [4, 17]: -1.64%
inhibition at 1 µM [5, 18]: 6%
inhibition at 1 µM [6, 19]: 11%
inhibition at 1 µM [7, 20]: -2.53%
inhibition at 1 µM [8, 21]: 16%
inhibition at 1 µM [9, 22]: -3%
inhibition at 1 µM [10, 23]: 1.27%
inhibition at 1 µM [11, 24]: 45%
inhibition at 1 µM [12, 25]: 0.675%
inhibition at 1 µM [13, 26]: 2.44%

Cn1cnc2c(F)c(Nc3ccc(Br)cc3Cl)c(C(=O)NOCCO)cc21 [selumetinib]
inhibition at 1 µM [1, 14]: 0.473%
inhibition at 1 µM [2, 15]: 2.71%
inhibition at 1 µM [3, 16]: -8%
inhibition at 1 µM [4, 17]: 0.774%
inhibition at 1 µM [5, 18]: 1.7%
inhibition at 1 µM [6, 19]: 1.83%
inhibition at 1 µM [7, 20]: -4%
inhibition at 1 µM [8, 21]: 4%
inhibition at 1 µM [9, 22]: 3%
inhibition at 1 µM [10, 23]: -0.923%
inhibition at 1 µM [11, 24]: -6%
inhibition at 1 µM [12, 25]: -3.49%
inhibition at 1 µM [13, 26]: -5.32%

CCc1nc(C(N)=O)c(Nc2ccc(N3CCC(N4CCN(C)CC4)CC3)c(OC)c2)nc1NC1CCOCC1 [gilteritinib]
inhibition at 1 µM [1, 14]: 92%
inhibition at 1 µM [2, 15]: 84%
inhibition at 1 µM [3, 16]: 97%
inhibition at 1 µM [4, 17]: 2.59%
inhibition at 1 µM [5]: 31%
inhibition at 1 µM [6, 19]: 8.52%
inhibition at 1 µM [7, 20]: 63%
inhibition at 1 µM [8, 21]: 98%
inhibition at 1 µM [9, 22]: 66%
inhibition at 1 µM [10, 23]: 24%
inhibition at 1 µM [11, 24]: 52%
inhibition at 1 µM [12, 25]: 4%
inhibition at 1 µM [13, 26]: 22%

CCN1C(=O)N(c2c(F)c(OC)cc(OC)c2F)Cc2cnc3[nH]c(CN4CCOCC4)cc3c21 [pemigatinib]
inhibition at 1 µM [1, 14]: 2.26%
inhibition at 1 µM [2, 15]: 2.55%
inhibition at 1 µM [3, 16]: 5%
inhibition at 1 µM [4, 17]: -1.19%
inhibition at 1 µM [5, 18]: -12%
inhibition at 1 µM [6, 19]: 5%
inhibition at 1 µM [7, 20]: 6.5%
inhibition at 1 µM [8, 21]: 11%
inhibition at 1 µM [9, 22]: 0.456%
inhibition at 1 µM [10, 23]: 9%
inhibition at 1 µM [11, 24]: 56%
inhibition at 1 µM [12, 25]: 48%
inhibition at 1 µM [13, 26]: -7%

Cn1cc(-c2cc3c(N4CCN(c5ncc([C@@](C)(N)c6ccc(F)cc6)cn5)CC4)ncnn3c2)cn1 [avapritinib]
inhibition at 1 µM [1, 14]: 4.51%
inhibition at 1 µM [2, 15]: 4%
inhibition at 1 µM [3, 16]: 19%
inhibition at 1 µM [4, 17]: 5.69%
inhibition at 1 µM [5, 18]: 0.833%
inhibition at 1 µM [6, 19]: 0.775%
inhibition at 1 µM [7, 20]: 44%
inhibition at 1 µM [8, 21]: 48%
inhibition at 1 µM [9, 22]: -0.071%
inhibition at 1 µM [10, 23]: 0.895%
inhibition at 1 µM [11, 24]: -6%
inhibition at 1 µM [12, 25]: -0.371%
inhibition at 1 µM [13, 26]: 0.0476%

CNC(=O)c1ccc(-c2cnc3ncc(Cc4ccc5ncccc5c4)n3n2)cc1F [capmatinib]
inhibition at 1 µM [1]: 0.765%
inhibition at 1 µM [2]: 0.264%
inhibition at 1 µM [3]: -11%
inhibition at 1 µM [4]: 0.709%
inhibition at 1 µM [5]: -0.376%
inhibition at 1 µM [6]: -0.731%
inhibition at 1 µM [7]: -2.24%
inhibition at 1 µM [8]: 16%
inhibition at 1 µM [9]: -3%
inhibition at 1 µM [10]: 0.692%
inhibition at 1 µM [11]: -0.936%
inhibition at 1 µM [12]: -1.65%
inhibition at 1 µM [13]: -3.24%

C[C@H](Nc1ncnc2nc[nH]c12)c1cc2cccc(Cl)c2c(=O)n1-c1ccccc1 [duvelisib]
inhibition at 1 µM [1, 14]: -1%
inhibition at 1 µM [2, 15]: 0.116%
inhibition at 1 µM [3, 16]: -2.72%
inhibition at 1 µM [4, 17]: 4.56%
inhibition at 1 µM [5, 18]: -5.41%
inhibition at 1 µM [6, 19]: -3.47%
inhibition at 1 µM [7, 20]: 2.15%
inhibition at 1 µM [8, 21]: -0.401%
inhibition at 1 µM [9, 22]: 3.5%
inhibition at 1 µM [10, 23]: -7.37%
inhibition at 1 µM [11, 24]: 12%
inhibition at 1 µM [12, 25]: 1.75%
inhibition at 1 µM [13, 26]: -2.73%

From paper PMC9516332 (Frontiers in Oncology, 2022)
